Assay results reported in the NIST ThermoML archive (doi:10.1021/je800017j).

Test: xn = mol fraction of the nth substance listed
Settings: Liquid, Vibrating tube method

C=CC [propene] + CC(C)O
Settings | mass density [kg/m3]
300.11 K, 966.7 kPa, x1 = 0.5201 | 644.49
300.11 K, 1373.3 kPa, x1 = 0.5201 | 645.21
300.11 K, 1835.6 kPa, x1 = 0.5201 | 645.98
300.11 K, 2340.9 kPa, x1 = 0.5201 | 646.83
300.11 K, 2812.4 kPa, x1 = 0.5201 | 647.62
300.11 K, 3330.1 kPa, x1 = 0.5201 | 648.49
300.11 K, 3817.5 kPa, x1 = 0.5201 | 649.27
300.11 K, 4386.1 kPa, x1 = 0.5201 | 650.18
300.11 K, 4873.7 kPa, x1 = 0.5201 | 650.95
300.11 K, 5375.2 kPa, x1 = 0.5201 | 651.72
300.11 K, 5888.8 kPa, x1 = 0.5201 | 652.52
300.11 K, 6442 kPa, x1 = 0.5201 | 653.35
300.11 K, 6942.8 kPa, x1 = 0.5201 | 654.09
300.11 K, 7498.2 kPa, x1 = 0.5201 | 654.9
300.11 K, 8104.7 kPa, x1 = 0.5201 | 655.77
300.11 K, 8671.8 kPa, x1 = 0.5201 | 656.58
300.11 K, 9226.7 kPa, x1 = 0.5201 | 657.35
300.11 K, 9787 kPa, x1 = 0.5201 | 658.16
300.12 K, 1068.5 kPa, x1 = 0.6478 | 608.06
300.12 K, 1486.5 kPa, x1 = 0.6478 | 608.93
300.12 K, 1740.6 kPa, x1 = 0.6478 | 609.48
300.12 K, 2123.8 kPa, x1 = 0.6478 | 610.19
300.12 K, 2620 kPa, x1 = 0.6478 | 611.17
300.12 K, 2986.8 kPa, x1 = 0.6478 | 611.92
300.12 K, 3495.3 kPa, x1 = 0.6478 | 612.85
300.12 K, 3829 kPa, x1 = 0.6478 | 613.59
300.12 K, 4193.5 kPa, x1 = 0.6478 | 614.26
300.12 K, 4542.8 kPa, x1 = 0.6478 | 614.93
300.12 K, 4905.4 kPa, x1 = 0.6478 | 615.61
300.12 K, 5263.7 kPa, x1 = 0.6478 | 616.27
300.12 K, 5634.1 kPa, x1 = 0.6478 | 616.94
300.12 K, 6011.3 kPa, x1 = 0.6478 | 617.61
300.12 K, 6395.3 kPa, x1 = 0.6478 | 618.28
300.12 K, 6788.6 kPa, x1 = 0.6478 | 618.96
300.12 K, 7165.4 kPa, x1 = 0.6478 | 619.61
300.12 K, 7558.1 kPa, x1 = 0.6478 | 620.28
300.12 K, 7960.1 kPa, x1 = 0.6478 | 620.96
300.12 K, 8377.2 kPa, x1 = 0.6478 | 621.66
300.12 K, 8785.5 kPa, x1 = 0.6478 | 622.34
300.12 K, 9234.2 kPa, x1 = 0.6478 | 623.05
300.12 K, 9682.1 kPa, x1 = 0.6478 | 623.79
300.14 K, 529.4 kPa, x1 = 0.2011 | 731.63
300.14 K, 1051.3 kPa, x1 = 0.2011 | 732.17
300.14 K, 1483.6 kPa, x1 = 0.2011 | 732.72
300.14 K, 1954.4 kPa, x1 = 0.2011 | 733.24
300.14 K, 2384 kPa, x1 = 0.2011 | 733.72
300.14 K, 2798.6 kPa, x1 = 0.2011 | 734.18
300.14 K, 3273.1 kPa, x1 = 0.2011 | 734.68
300.14 K, 3740.2 kPa, x1 = 0.2011 | 735.18
300.14 K, 4186.3 kPa, x1 = 0.2011 | 735.68
300.14 K, 4728.6 kPa, x1 = 0.2011 | 736.23
300.14 K, 5235.6 kPa, x1 = 0.2011 | 736.78
300.14 K, 5767.3 kPa, x1 = 0.2011 | 737.3
300.14 K, 6274.7 kPa, x1 = 0.2011 | 737.83
300.14 K, 6832.5 kPa, x1 = 0.2011 | 738.41
300.14 K, 7291.5 kPa, x1 = 0.2011 | 738.89
300.14 K, 7811.8 kPa, x1 = 0.2011 | 739.42
300.14 K, 8296.6 kPa, x1 = 0.2011 | 739.9
300.14 K, 8810.3 kPa, x1 = 0.2011 | 740.41
300.14 K, 9337.7 kPa, x1 = 0.2011 | 740.91
300.14 K, 9886.4 kPa, x1 = 0.2011 | 741.45
325.05 K, 1613.1 kPa, x1 = 0.5201 | 613.41
325.05 K, 1977.7 kPa, x1 = 0.5201 | 614.26
325.05 K, 2359 kPa, x1 = 0.5201 | 615.15
325.05 K, 2717.2 kPa, x1 = 0.5201 | 615.98
325.05 K, 3167.8 kPa, x1 = 0.5201 | 616.93
325.05 K, 3506.1 kPa, x1 = 0.5201 | 617.74
325.05 K, 3888.8 kPa, x1 = 0.5201 | 618.59
325.05 K, 4321.6 kPa, x1 = 0.5201 | 619.52
325.05 K, 4676.7 kPa, x1 = 0.5201 | 620.29
325.05 K, 5061.4 kPa, x1 = 0.5201 | 621.12
325.05 K, 5471.8 kPa, x1 = 0.5201 | 621.94
325.05 K, 5880.1 kPa, x1 = 0.5201 | 622.78
325.05 K, 6293.6 kPa, x1 = 0.5201 | 623.65
325.05 K, 6704.3 kPa, x1 = 0.5201 | 624.42
325.05 K, 7171.7 kPa, x1 = 0.5201 | 625.34
325.05 K, 7597.4 kPa, x1 = 0.5201 | 626.18
325.05 K, 8037.5 kPa, x1 = 0.5201 | 627.02
325.05 K, 8556.5 kPa, x1 = 0.5201 | 628.02
325.05 K, 9078.1 kPa, x1 = 0.5201 | 628.97
325.05 K, 9631.3 kPa, x1 = 0.5201 | 629.98
325.09 K, 810.9 kPa, x1 = 0.2011 | 703.07
325.09 K, 1218.9 kPa, x1 = 0.2011 | 703.59
325.09 K, 1608.7 kPa, x1 = 0.2011 | 704.14
325.09 K, 2001.8 kPa, x1 = 0.2011 | 704.7
325.09 K, 2383.7 kPa, x1 = 0.2011 | 705.3
325.09 K, 2827.6 kPa, x1 = 0.2011 | 705.86
325.09 K, 3159.2 kPa, x1 = 0.2011 | 706.38
325.09 K, 3707.9 kPa, x1 = 0.2011 | 707.07
325.09 K, 4123.6 kPa, x1 = 0.2011 | 707.68
325.09 K, 4528.5 kPa, x1 = 0.2011 | 708.19
325.09 K, 4925.3 kPa, x1 = 0.2011 | 708.73

Settings | mass density [kg/m3]
300.11 K, x1 = 0.5201 | 644.42
300.12 K, x1 = 0.6478 | 607.97
300.14 K, x1 = 0.2011 | 731.63
325.05 K, x1 = 0.5201 | 613.29
